Results taken from patent US9371336B2, “Compounds for treating spinal muscular atrophy” (PTC Therapeutics Inc., priority 2012, dated 2016).

Assays:
[1] = system: SMN2 minigene mRNA (SMN2-A minigene construct); assay: SMN2 minigene mRNA splicing RT-qPCR assay in cultured cells; type: cell-based, human; details: Homo sapiens, HEK293-H; HEK293H cells stably transfected with SMN2-A minigene, 24 hours, 7-point concentration data; concentration giving 1.5-fold SMN2 full length mRNA relative to vehicle-treated cells; read-out: EC1.5x for production of full length SMN2 mRNA
In short: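 Full-length SMN2 minigene mRNA, measured by exon 7/luciferase-specific RT-qPCR that excludes endogenous SMN1/SMN2, was normalized to GAPDH and expressed relative to vehicle-treated cells via modified ΔΔCt. Stably transfected HEK293H cells received compound (7-point, 3.16-fold series, duplicates) for 24 h at 37 °C.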

Smn protein = Smn protein assay (HTRF) in cultured cells (SMA patient fibroblasts GM03813); type: cell-based, human; details: 48 hours; for EC1.5x for Smn protein expression: SMA patient fibroblast cells (GM03813), HTRF, 7-point concentration data, concentration producing 1.5 times Smn protein vs DMSO vehicle control; for maximum fold (Fold) increase of Smn protein: SMA patient fibroblast cells, 7-point concentration curve, relative to vehicle control
In short: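 SMA patient fibroblasts (GM03813) were treated 48 h at 37° C with a 7-point, 3.16-fold compound series in triplicate, then lysed in RIPA. Smn was read by HTRF (anti-SMN d2/kryptate, 665/620 nm ratio). ΔF versus blank was divided by vehicle ΔF to give fold Smn increase.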

melting point | SMILES | EC (1.5-fold) [1] | EC1.5x for Smn protein expression (Smn protein) | maximum fold (Fold) increase of Smn protein (Smn protein)
210 to 213 °C | C[C@H]1CN(C)CCN1c1ccc2cc(-c3cn4cccc(F)c4n3)c(=O)oc2n1 [Cpd 68, 7-[(2S)-2,4-dimethylpiperazin-1-yl]-3-(8-fluoroimidazo[1,2-a]pyridin-2-yl)-2H-pyrano[2,3-b]pyridin-2-one] | ≤ 0.1 µM | *** (an EC1.5× between >0.3 μM and ≦1 μM is indicated by three stars (***)) | **** (a fold increase between >1.5 and ≦1.65 is indicated by four stars (****))
222 to 225 °C | C[C@H]1CN(c2ccc3cc(-c4cn5cccc(F)c5n4)c(=O)oc3n2)CCN1C [Cpd 69, 7-[(3S)-3,4-dimethylpiperazin-1-yl]-3-(8-fluoroimidazo[1,2-a]pyridin-2-yl)-2H-pyrano[2,3-b]pyridin-2-one] | ≤ 0.1 µM | **** (an EC1.5×≦0.3 μM is indicated by four stars (****)) | ***** (a fold increase >1.65 is indicated by five stars (*****))
295 to 297 °C | C[C@@H]1CN(c2ccc3cc(-c4nc5c(Cl)cccc5s4)c(=O)oc3n2)C[C@H](C)N1 [Cpd 70, 3-(4-chloro-1,3-benzothiazol-2-yl)-7-[(3R,5S)-3,5-dimethylpiperazin-1-yl]-2H-pyrano[2,3-b]pyridin-2-one] | 0.1 to 0.3 µM | – | *** (a fold increase between >1.35 and ≦1.5 is indicated by three stars (***))
286 to 288 °C | C[C@@H]1CN(c2ccc3cc(-c4nc5c(Cl)cccc5s4)c(=O)oc3n2)C[C@H](C)N1C [Cpd 71, 3-(4-chloro-1,3-benzothiazol-2-yl)-7-[(3R,5S)-3,4,5-trimethylpiperazin-1-yl]-2H-pyrano[2,3-b]pyridin-2-one] | 0.1 to 0.3 µM | – | ** (a fold increase between >1.2 and ≦1.35 is indicated by two stars (**))
248 to 252 °C | Cc1ccc2nc(-c3cc4ccc(N5CCN(C)[C@@H](C)C5)nc4oc3=O)cn2c1 [Cpd 74, 7-[(3S)-3,4-dimethylpiperazin-1-yl]-3-(6-methylimidazo[1,2-a]pyridin-2-yl)-2H-pyrano[2,3-b]pyridin-2-one] | ≤ 0.1 µM | *** (an EC1.5× between >0.3 μM and ≦1 μM is indicated by three stars (***)) | **** (a fold increase between >1.5 and ≦1.65 is indicated by four stars (****))
247 to 251 °C | Cc1ccc2nc(-c3cc4ccc(N5CCN(C)[C@H](C)C5)nc4oc3=O)cn2c1 [Cpd 75, 7-[(3R)-3,4-dimethylpiperazin-1-yl]-3-(6-methylimidazo[1,2-a]pyridin-2-yl)-2H-pyrano[2,3-b]pyridin-2-one] | 0.1 to 0.3 µM | *** (an EC1.5× between >0.3 μM and ≦1 μM is indicated by three stars (***)) | **** (a fold increase between >1.5 and ≦1.65 is indicated by four stars (****))
247 to 249 °C | C[C@@H]1CN(c2ccc3cc(-c4cn5cccc(F)c5n4)c(=O)oc3n2)C[C@H](C)N1 [Cpd 76, 7-[(3R,5S)-3,5-dimethylpiperazin-1-yl]-3-(8-fluoroimidazo[1,2-a]pyridin-2-yl)-2H-pyrano[2,3-b]pyridin-2-one] | ≤ 0.1 µM | **** (an EC1.5×≦0.3 μM is indicated by four stars (****)) | ***** (a fold increase >1.65 is indicated by five stars (*****))
240 to 242 °C | C[C@@H]1CN(c2ccc3cc(-c4cn5cccc(Cl)c5n4)c(=O)oc3n2)C[C@H](C)N1 [Cpd 77, 3-(8-chloroimidazo[1,2-a]pyridin-2-yl)-7-[(3R,5S)-3,5-dimethylpiperazin-1-yl]-2H-pyrano[2,3-b]pyridin-2-one] | ≤ 0.1 µM | **** (an EC1.5×≦0.3 μM is indicated by four stars (****)) | ***** (a fold increase >1.65 is indicated by five stars (*****))
255 to 258 °C | C[C@@H]1CN(c2ccc3cc(-c4cn5cccnc5n4)c(=O)oc3n2)C[C@H](C)N1 [Cpd 78, 7-[(3R,5S)-3,5-dimethylpiperazin-1-yl]-3-(imidazo[1,2-a]pyrimidin-2-yl)-2H-pyrano[2,3-b]pyridin-2-one] | 0.1 to 0.3 µM | **** (an EC1.5×≦0.3 μM is indicated by four stars (****)) | ***** (a fold increase >1.65 is indicated by five stars (*****))
213 to 216 °C | C[C@H]1CN(c2ccc3cc(-c4cn5ccccc5n4)c(=O)oc3n2)CCN1C [Cpd 81, 7-[(3S)-3,4-dimethylpiperazin-1-yl]-3-(imidazo[1,2-a]pyridin-2-yl)-2H-pyrano[2,3-b]pyridin-2-one] | 0.1 to 0.3 µM | **** (an EC1.5×≦0.3 μM is indicated by four stars (****)) | ***** (a fold increase >1.65 is indicated by five stars (*****))
216 to 219 °C | C[C@@H]1CN(c2ccc3cc(-c4cn5ccccc5n4)c(=O)oc3n2)CCN1C [Cpd 82, 7-[(3R)-3,4-dimethylpiperazin-1-yl]-3-(imidazo[1,2-a]pyridin-2-yl)-2H-pyrano[2,3-b]pyridin-2-one] | 0.1 to 0.3 µM | *** (an EC1.5× between >0.3 μM and ≦1 μM is indicated by three stars (***)) | **** (a fold increase between >1.5 and ≦1.65 is indicated by four stars (****))
223 to 227 °C | C[C@@H]1CN[C@@H](C)CN1c1ccc2cc(-c3nc4c(Cl)cccc4s3)c(=O)oc2n1 [Cpd 85, 3-(4-chloro-1,3-benzothiazol-2-yl)-7-[(2R,5S)-2,5-dimethylpiperazin-1-yl]-2H-pyrano[2,3-b]pyridin-2-one] | 0.1 to 0.3 µM | – | ** (a fold increase between >1.2 and ≦1.35 is indicated by two stars (**))
233 to 234 °C | C[C@@H]1CN(C)[C@@H](C)CN1c1ccc2cc(-c3nc4c(Cl)cccc4s3)c(=O)oc2n1 [Cpd 86, 3-(4-chloro-1,3-benzothiazol-2-yl)-7-[(2R,5S)-2,4,5-trimethylpiperazin-1-yl]-2H-pyrano[2,3-b]pyridin-2-one] | 0.3 to 1 µM | – | ** (a fold increase between >1.2 and ≦1.35 is indicated by two stars (**))
225 to 229 °C | Cc1ccc2nc(-c3cc4ccc(N5C[C@H](C)NC[C@H]5C)nc4oc3=O)cn2c1 [Cpd 87, 7-[(2R,5S)-2,5-dimethylpiperazin-1-yl]-3-(6-methylimidazo[1,2-a]pyridin-2-yl)-2H-pyrano[2,3-b]pyridin-2-one] | 0.1 to 0.3 µM | **** (an EC1.5×≦0.3 μM is indicated by four stars (****)) | ***** (a fold increase >1.65 is indicated by five stars (*****))
273 to 276 °C | Cc1cn2cc(-c3cc4ccc(N5CCCNCC5)nc4oc3=O)nc2c(C)n1.Cl [Cpd 89, 7-(1,4-diazepan-1-yl)-3-(6,8-dimethylimidazo[1,2-a]pyrazin-2-yl)-2H-pyrano[2,3-b]pyridin-2-one hydrochloride] | ≤ 0.1 µM | **** (an EC1.5×≦0.3 μM is indicated by four stars (****)) | **** (a fold increase between >1.5 and ≦1.65 is indicated by four stars (****))
